Experimental data published in patent publication US8158165B2, “Preventative treatment and remission of allergic diseases” (CSIR, priority 2006, dated 2012).

Legend:
[1] = Cytotoxicity, Mediator Release, Con A-Induced (AlamarBlue); type: cell-based, human; details: human, pH 7.4
Procedure: (§1) For the ConA-Induced mediator release/cytotoxicity test, the test compound and/or vehicle is incubated with a suspension of human peripheral blood mononuclear leukocytes (PBMNL, 1×10^5/well) in the presence of Concanavalin A (Con A, 20 μg/ml) in RPMI buffer (pH 7.4) at 37° C. overnight in 5% CO2. AlamarBlue reagent is added and the cells are incubated at 37° C. for 16 hours. Living cells take up AlamarBlue and emit fluorescence. Fluorescence intensity is measured using a SpectraFluor Plus plate reader with excitation at 530 nm and emission at 590 nm. A decrease of 50% or more (50%) in fluorescence intensity relative to the vehicle treated controls indicates significant cytotoxicity. […] Dexamethasone is used as standard reference agent.

[2] = system: human peripheral blood mononuclear leukocytes (PBMNL); test: as above; type: cell-based
Procedure: as §1

[3] = system: Human T lymphocytic Jurkat cells; test: Cytotoxicity, Transcription Response NF-κB; type: cell-based
Procedure: Human T lymphocytic Jurkat cells, transfected with a response element-lacZ reporter in which transcription of the β-galactosidase gene is directed by the binding site for the NF-κB transcription factor, are used. Test compound and/or vehicle are incubated with the cells (1.5×10^6/ml) in the presence of 0.5 μM A23187 and 50 ng/ml PMA (phorbol 12-myristate 13-acetate) in RPMI-1640 pH 7.4 at 37° C. for 4 hours. Test compound-induced β-galactosidase activity is determined by the conversion of FDG (fluorescein di-β-D-galactopyranoside) to fluorescein. Fluorescence intensity is read on SpectroFluor Plus plate reader. […] […] These same concentrations are concurrently applied to a separate group of treated cells and evaluated for possible compound-induced cytotoxicity only if significant stimulation or inhibition is observed (Cat. #361100).

For `Cc1coc2c1C[C@H]1[C@H](C)C=CC(=O)[C@]1(C)C2` (relative stereo) [compound 1, 4,4a,5,9-tetrahydro-3,5,8a-trimethylnaptho[2,3-b]furan-8-one], the IC50 [1] was 58.5 µM, the “cytotoxicity observed in mediator release bio-assays (in words)” value [2] was “Limited cytotoxicity” and the “ANT. Cytotoxicity, Mediator Release, Con A-Induced” value (“ANT. Cytotoxicity, Mediator Release” below) ([2]; 10 nM) was −1%. The “ANT. Cytotoxicity, Mediator Release” value ([2]; 0.1 μM) was 0%, the “ANT. Cytotoxicity, Mediator Release” value ([2]; 1 μM) was 18% and the “ANT. Cytotoxicity, Mediator Release” value ([2]; 10 μM) was 35%. The “ANT. Cytotoxicity, Mediator Release” value ([2]; 100 μM) was 53%, the “% RESPONSE Ant, Cytotoxicity, Transcription Response NF-κB” value (“% RESPONSE Ant, Cytotoxicity” for short) ([3]; 0.1 μM) was 6% and the “% RESPONSE Ant, Cytotoxicity” value ([3]; 1 μM) was 2%. The “% RESPONSE Ant, Cytotoxicity” value ([3]; 10 μM) was 2%, the “% RESPONSE Ant, Cytotoxicity” value ([3]; 10 μM, fifth (last) step of the series) was 1% and the “% RESPONSE Ant, Cytotoxicity” value ([3]; 100 μM) was −3%. For the same molecule, the “% RESPONSE Ant, Cytotoxicity” value ([3]; 100 μM, listed as compound of formula 1) was “no apparent cytotoxicity”.
